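Protocol summary: plate cells (96-well), add compound at 5 concentrations, incubate 48 h, interpolate endpoints linearly. The concentration for full growth arrest is given as TGI.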
Key:
Test in all cases: NCI anticancer screen, dose series, 48 h
COLO 205 colon = tested on: COLO 205 colon
SK-MEL-28 melanoma = tested on: SK-MEL-28 melanoma
NCI-H460 lung = tested on: NCI-H460 lung
HT29 colon = tested on: HT29 colon
TK-10 renal = tested on: TK-10 renal
NCI/ADR-RES ovarian = tested on: NCI/ADR-RES ovarian
MALME-3M melanoma = tested on: MALME-3M melanoma
SNB-75 CNS = tested on: SNB-75 CNS
OVCAR-5 ovarian = tested on: OVCAR-5 ovarian
T-47D breast = tested on: T-47D breast
LOX IMVI melanoma = tested on: LOX IMVI melanoma
HS 578T breast = tested on: HS 578T breast
SNB-19 CNS = tested on: SNB-19 CNS
SK-MEL-5 melanoma = tested on: SK-MEL-5 melanoma
OVCAR-3 ovarian = tested on: OVCAR-3 ovarian
SF-539 CNS = tested on: SF-539 CNS
HOP-62 NSCLC = tested on: HOP-62 NSCLC
M14 melanoma = tested on: M14 melanoma
SK-MEL-2 melanoma = tested on: SK-MEL-2 melanoma
K-562 leukemia = tested on: K-562 leukemia
HCC-2998 colon = tested on: HCC-2998 colon
OVCAR-8 ovarian = tested on: OVCAR-8 ovarian
RPMI-8226 leukemia = tested on: RPMI-8226 leukemia
UACC-62 melanoma = tested on: UACC-62 melanoma
MDA-MB-231 breast = tested on: MDA-MB-231 breast
HL-60(TB) leukemia = tested on: HL-60(TB) leukemia
MDA-N = tested on: MDA-N
MOLT-4 leukemia = tested on: MOLT-4 leukemia
HOP-92 NSCLC = tested on: HOP-92 NSCLC
NCI-H522 lung = tested on: NCI-H522 lung
A498 renal = tested on: A498 renal
MCF7 breast = tested on: MCF7 breast
ACHN renal = tested on: ACHN renal
UO-31 renal = tested on: UO-31 renal
DU-145 prostate = tested on: DU-145 prostate
HCT-15 colon = tested on: HCT-15 colon
NCI-H23 lung = tested on: NCI-H23 lung
SF-268 CNS = tested on: SF-268 CNS
IGROV1 ovarian = tested on: IGROV1 ovarian
BT-549 breast = tested on: BT-549 breast
CAKI-1 renal = tested on: CAKI-1 renal
HCT-116 colon = tested on: HCT-116 colon
NCI-H226 lung = tested on: NCI-H226 lung
786-0 renal = tested on: 786-0 renal
SR leukemia = tested on: SR leukemia
A549 NSCLC = tested on: A549 NSCLC
RXF 393 renal = tested on: RXF 393 renal
PC-3 prostate = tested on: PC-3 prostate
UACC-257 melanoma = tested on: UACC-257 melanoma
SF-295 CNS = tested on: SF-295 CNS
SK-OV-3 ovarian = tested on: SK-OV-3 ovarian
EKVX NSCLC = tested on: EKVX NSCLC
CCRF-CEM leukemia = tested on: CCRF-CEM leukemia
KM12 colon = tested on: KM12 colon
MDA-MB-435 = tested on: MDA-MB-435
SW-620 colon = tested on: SW-620 colon
SN12C renal = tested on: SN12C renal
U251 CNS = tested on: U251 CNS
OVCAR-4 ovarian = tested on: OVCAR-4 ovarian

Measured: TGI

Cc1ncc(-c2nnnn2-c2ccccc2)c(C(=O)O)n1
> 100 µM: COLO 205 colon | SK-MEL-28 melanoma | NCI-H460 lung | HT29 colon | TK-10 renal | NCI/ADR-RES ovarian | MALME-3M melanoma | SNB-75 CNS | OVCAR-5 ovarian | T-47D breast | LOX IMVI melanoma | HS 578T breast | SNB-19 CNS | SK-MEL-5 melanoma | OVCAR-3 ovarian | SF-539 CNS | HOP-62 NSCLC | M14 melanoma | SK-MEL-2 melanoma | K-562 leukemia | HCC-2998 colon | OVCAR-8 ovarian | RPMI-8226 leukemia | UACC-62 melanoma | MDA-MB-231 breast | HL-60(TB) leukemia | MDA-N | MOLT-4 leukemia | HOP-92 NSCLC | NCI-H522 lung | A498 renal | MCF7 breast | ACHN renal | UO-31 renal | DU-145 prostate | HCT-15 colon | NCI-H23 lung | SF-268 CNS | IGROV1 ovarian | BT-549 breast | CAKI-1 renal | HCT-116 colon | NCI-H226 lung | 786-0 renal | SR leukemia | A549 NSCLC | RXF 393 renal | PC-3 prostate | UACC-257 melanoma | SF-295 CNS | SK-OV-3 ovarian | EKVX NSCLC | CCRF-CEM leukemia | KM12 colon | MDA-MB-435 | SW-620 colon | SN12C renal | U251 CNS

O=C(NCc1ccccc1)c1cc2ccccc2oc1=Nc1ccccc1F
36.1 µM: UO-31 renal
58.3 µM: ACHN renal
> 100 µM: SK-MEL-28 melanoma | NCI-H460 lung | HT29 colon | NCI/ADR-RES ovarian | MALME-3M melanoma | OVCAR-5 ovarian | T-47D breast | HS 578T breast | SNB-19 CNS | OVCAR-3 ovarian | M14 melanoma | SK-MEL-2 melanoma | K-562 leukemia | RPMI-8226 leukemia | UACC-62 melanoma | HL-60(TB) leukemia | MDA-N | MOLT-4 leukemia | HOP-92 NSCLC | NCI-H522 lung | A498 renal | MCF7 breast | DU-145 prostate | HCT-15 colon | SF-268 CNS | IGROV1 ovarian | BT-549 breast | HCT-116 colon | SR leukemia | PC-3 prostate | UACC-257 melanoma | SF-295 CNS | EKVX NSCLC | CCRF-CEM leukemia | KM12 colon | MDA-MB-435 | SW-620 colon | U251 CNS
27.9 µM: CAKI-1 renal
92.2 µM: NCI-H226 lung
39.8 µM: HOP-62 NSCLC
51.9 µM: SK-MEL-5 melanoma
61.5 µM: HCC-2998 colon
74.4 µM: COLO 205 colon
47.5 µM: SK-OV-3 ovarian
36.7 µM: TK-10 renal
76.7 µM: OVCAR-4 ovarian
57.5 µM: NCI-H23 lung
37.3 µM: LOX IMVI melanoma
31.2 µM: OVCAR-8 ovarian
96.3 µM: SN12C renal
24.1 µM: 786-0 renal
84.5 µM: RXF 393 renal
45.5 µM: SNB-75 CNS
88.7 µM: A549 NSCLC
47.3 µM: MDA-MB-231 breast

CCOC(NC(=O)CC)(C(F)(F)F)C(F)(F)F
61.2 µM: RXF 393 renal
> 100 µM: COLO 205 colon | SK-MEL-28 melanoma | NCI-H460 lung | HT29 colon | TK-10 renal | NCI/ADR-RES ovarian | MALME-3M melanoma | SNB-75 CNS | OVCAR-5 ovarian | T-47D breast | LOX IMVI melanoma | HS 578T breast | SNB-19 CNS | SK-MEL-5 melanoma | OVCAR-3 ovarian | SF-539 CNS | HOP-62 NSCLC | M14 melanoma | SK-MEL-2 melanoma | K-562 leukemia | HCC-2998 colon | OVCAR-8 ovarian | RPMI-8226 leukemia | UACC-62 melanoma | MDA-MB-231 breast | HL-60(TB) leukemia | MDA-N | MOLT-4 leukemia | HOP-92 NSCLC | NCI-H522 lung | A498 renal | MCF7 breast | ACHN renal | UO-31 renal | DU-145 prostate | HCT-15 colon | NCI-H23 lung | SF-268 CNS | IGROV1 ovarian | BT-549 breast | CAKI-1 renal | HCT-116 colon | NCI-H226 lung | 786-0 renal | SR leukemia | A549 NSCLC | PC-3 prostate | UACC-257 melanoma | SF-295 CNS | SK-OV-3 ovarian | EKVX NSCLC | CCRF-CEM leukemia | KM12 colon | MDA-MB-435 | SW-620 colon | SN12C renal | U251 CNS

Cc1cc(S(=O)(=O)Nc2n[nH]c(-c3ccc(Cl)cn3)n2)c(S)cc1Cl
> 100 µM: COLO 205 colon | SK-MEL-28 melanoma | NCI-H460 lung | HT29 colon | TK-10 renal | NCI/ADR-RES ovarian | MALME-3M melanoma | SNB-75 CNS | OVCAR-5 ovarian | T-47D breast | LOX IMVI melanoma | SK-MEL-5 melanoma | OVCAR-3 ovarian | SF-539 CNS | HOP-62 NSCLC | M14 melanoma | SK-MEL-2 melanoma | HCC-2998 colon | OVCAR-8 ovarian | RPMI-8226 leukemia | UACC-62 melanoma | MDA-MB-231 breast | HL-60(TB) leukemia | MDA-N | OVCAR-4 ovarian | MOLT-4 leukemia | HOP-92 NSCLC | NCI-H522 lung | A498 renal | MCF7 breast | ACHN renal | DU-145 prostate | HCT-15 colon | SF-268 CNS | IGROV1 ovarian | BT-549 breast | CAKI-1 renal | HCT-116 colon | NCI-H226 lung | 786-0 renal | SR leukemia | A549 NSCLC | RXF 393 renal | PC-3 prostate | UACC-257 melanoma | SK-OV-3 ovarian | EKVX NSCLC | KM12 colon | MDA-MB-435 | SW-620 colon | SN12C renal | U251 CNS
99.4 µM: UO-31 renal
92.5 µM: SNB-19 CNS
87.2 µM: HS 578T breast

CC(=O)N/N=C1/NN(C(C)=O)C2(S1)C(=O)Nc1ccc(C)cc12 (stereo not given)
> 100 µM: COLO 205 colon | SK-MEL-28 melanoma | NCI-H460 lung | HT29 colon | TK-10 renal | NCI/ADR-RES ovarian | MALME-3M melanoma | SNB-75 CNS | OVCAR-5 ovarian | LOX IMVI melanoma | HS 578T breast | SNB-19 CNS | SK-MEL-5 melanoma | OVCAR-3 ovarian | SF-539 CNS | HOP-62 NSCLC | M14 melanoma | K-562 leukemia | HCC-2998 colon | OVCAR-8 ovarian | RPMI-8226 leukemia | UACC-62 melanoma | MDA-MB-231 breast | HL-60(TB) leukemia | MDA-N | OVCAR-4 ovarian | MOLT-4 leukemia | HOP-92 NSCLC | NCI-H522 lung | A498 renal | MCF7 breast | ACHN renal | UO-31 renal | DU-145 prostate | HCT-15 colon | NCI-H23 lung | SF-268 CNS | IGROV1 ovarian | BT-549 breast | CAKI-1 renal | HCT-116 colon | NCI-H226 lung | 786-0 renal | SR leukemia | A549 NSCLC | RXF 393 renal | PC-3 prostate | UACC-257 melanoma | SF-295 CNS | EKVX NSCLC | CCRF-CEM leukemia | KM12 colon | MDA-MB-435 | SN12C renal | U251 CNS
70.9 µM: T-47D breast
